Experiment [1] concerns S. cerevisiae PB1X-9B(pOPT1). The experiment is classed as cell-based, Saccharomyces cerevisiae. To be noted: 0.38 μmoles per 6 mm disk; for zone of growth inhibition / sensitivity: 0.1% proline as nitrogen source; for zone of growth inhibition: ammonium sulfate as nitrogen source, 24-48 hr. The protocol:
(§1) S. cerevisiae PB1X-9B is sensitive to the toxic amino acid ethionine Eth) but is resistant to ethionine containing di-, tri-, tetra-, and pentapeptides. Disk sensitivity assays was utilized to determine if cells transformed with pOPT1 were sensitive to toxic peptides and whether this sensitivity was dependent upon nitrogen source.
(§2) Sensitivity to ethionine, a toxic methionine analog, and ethionine-containing peptides was determined by the method described by Island et al. (1987). Cells were grown overnight to exponential phase of growth in SC, washed, and resuspended at 5×10^6 cells /ml in sterile water. One ml of this cell suspension was added to 3 ml molten Noble agar (0.8% final concentration) and overlayed on 20 ml of the same medium used to prepare the inoculum. A disk (6 mm diameter, Difco) was placed on the plate and 0.38 μmoles of the compounds to be tested were applied to the disks. Zones of inhibition were measured after 24-48 hr incubation at 30 iC. Each test comprised at least three independent assays and the results represented in the Tables are means of the values obtained. Maximum variation between the zones of inhibition measured for each test were ^23 mm. A value of 7 mm for the diameter of zone of inhibition represents a minimal growth inhibition value as the disk diameter was 6 mm. Photodocumentation of sensitivity assays was done with a Umax Scanner and processed through Adobe Photoshop.

Experiment [2] concerns S. cerevisiae PB1X-9B(pRS202). The experiment is described as follows: Disk sensitivity assay to ethionine-containing peptides, PB1X-9B(pRS202). The experiment is classed as cell-based, Saccharomyces cerevisiae. To be noted: for zone of growth inhibition / sensitivity: 0.1% proline as nitrogen source, 0.38 μmoles per 6 mm disk; for zone of growth inhibition: medium containing ammonium sulfate. The protocol:
as §1, §2

Experiment [3] concerns S. cerevisiae PB1X-9B(pOPT1). The experiment is described as follows: Growth assay, peptides as sole source of leucine, PB1X-9B(pOPT1). The experiment is classed as cell-based, Saccharomyces cerevisiae. To be noted: 100 μM peptide; for utilization of peptide as a sole source of leucine (growth): medium with 0.1% proline as nitrogen source. The protocol: (§3) To determine the size constraints of peptide utilization mediated by pOPT1, the ability of S. cerevisiae PB1X-9B (a mutant in the di-/tripeptide transporter) harboring either pRS202 (the parent vector) or pOPT1 (pRS202 containing the 3.8 kb insert with the OPT1 gene) to grow on KL, KLG, KLLG SEQ ID NO:6, and KLLLG SEQ ID NO:8 as a sole source of leucine was tested. Previously it has been shown that di-/tripeptide transport activity in C. albicans and S. cerevisiae is regulated by nitrogen; rich nitrogen sources such as ammnonium sulfate repress, while poor nitrogen sources such as proline derepress transport. Therefore simultaneous effect of nitrogen source on oligopeptide transport activity was determined by supplying either ammnonium sulfate or proline as the nitrogen source.
(§4) Peptide medium consisted of minimal medium supplemented with auxotrophic requirements minus the amino acid Seucine plus 100 μM of one of the following peptidest Lysyl-Leucine (KL), Lysyl-Leucyl-Glycine (KLG), Lysyl-Leucyl-Leucyl-Glycine (KLLG) SEQ ID NO:6, Lysyl-Leucyl-Glycyl-Leucine (KLGL) SEQ ID NO:7, or Lysyl-Leucyl-Leucyl-Leucyl-Glycine (KLLLG) SEQ ID NO:8. Abbreviations for toxic peptides and amino acids used herein are as follows: Ethionine (Eth), Alanyl-Ethionine (AEth), Leucyl-Ethionine (LEth), Lysysl-Leucyl-Ethionine (KLEth), Lysyl-Leucyl-Leucyl-Ethionine (KLLEth) SEQ ID NO:12, Lysysl-Leucyl-Alanyl-Ethionine (KLAEth) SEQ ID NO:14, and Lysyl-Leucyl-Leucyl-Leucyl-Ethionine (KLLLEth) SEQ ID NO:13. All amino acids were in the L configuration.
(§5) Growth assays to determine the phenotype of the cells were done as described by Island et al. (1991). Briefly, 3 μl of culture from a suspension of 5×10^6 cells/ml were spotted to the surface of the medium and plates were incubated at 30 iC for 4-7 days.

For experiment [4], the system named is S. cerevisiae PB1X-9B(pRS202). In words: Growth assay, peptides as sole source of leucine, PB1X-9B(pRS202). The class given is cell-based, Saccharomyces cerevisiae. To be noted: medium with 0.1% proline as nitrogen source; 100 μM peptide. The protocol:
as §3, §4, §5

The test system of experiment [5] is oligopeptide transporter (OPT1) expressed in S. cerevisiae PB1X-9B. The experiment is described as follows: Peptide transport competition experiment, KLG-[3H]L uptake by PB1X-9B(pOPT1). The class given is cell-based, Candida albicans. To be noted: for uptake rate of KLG-[3H]L in the presence of the competitor: SC-Ura with ammonium sulfate; for competition with the uptake of KLG-[3H]L: 10-fold molar excess of competitor, FIG. 7. The protocol:
To more rigorously determine the size constraints of the oligopeptide transporter, the accumulation of KLG-[^3H]L SEQ ID NO:7 was measured in the presence of 10-fold molar excess of the competitors L, KL, KLG, KLLG SEQ ID NO:6, and KLLLG SEQ ID NO:8. […] Uptake rates were calculated from a bestfit of the slope for each set of data. The uptake rate of KLG-[^3H]L SEQ ID NO:7 in the presence of no competitor, L, or KL was […] of dry weight, respectively. When KLG was used as a competitor the uptake rate was 0.12 nmoles/min/mg of dry weight which was approximately 50% of the no-competitor rate. The uptake rate approximated zero when KLLG SEQ ID NO:6 and KLLLG SEQ ID NO:8 were used as competitors.
Uptake of KLG-[^3H]L SEQ ID NO:7 was determined using a protocol for uptake of dipeptides as described by Basrai et al. (1995) with a few modifications. S. cerevisiae cultures were grown overnight to exponential phase in SC-Ura medium. Cells were harvested by centrifugation, and resuspended in 2% glucose at a cell density of 2×10^8 cells/ml. Two hundred and fifty microliters of cell suspension were added to an equal volume of an uptake assay reaction mixture and incubated at 30iC. The final concentrations of the components in the uptake assay solution were: glucose (2%, w/v), 10 mM sodium citrate/potassium phosphate buffer (pH 5.0), and KLG-[^3H]L SEQ ID NO:7 (150 μM; 8.5 mCi/mmol). Competition experiments were done in the presence of either 1.5 mM L, KL, KLG, KLLG SEQ ID NO:6, or KLLLG SEQ ID NO:8. At various time points, 90 μl portions were removed and filtered through a membrane. The yeast cells retained on the filter were washed twice with ice-cold distilled water, once with room temperature distilled water, and the residual radioactivity was measured by liquid scintillation. There was no peptide adsorption to the cell surface or sticking to filters since at 0i C the counts were at background level. The uptake results, calculated on the basis of 50% counting efficiency (determined using L-[^3H]lysine as a standard, and the specific activity of the peptide), were expressed as nmol of peptide uptake per minute per mg cell dry weight.

In experiment [6] the target is T1, Candida albicans oligopeptide transporter Opt1p (protein product of OPT1) (Candida albicans).
T1 chain: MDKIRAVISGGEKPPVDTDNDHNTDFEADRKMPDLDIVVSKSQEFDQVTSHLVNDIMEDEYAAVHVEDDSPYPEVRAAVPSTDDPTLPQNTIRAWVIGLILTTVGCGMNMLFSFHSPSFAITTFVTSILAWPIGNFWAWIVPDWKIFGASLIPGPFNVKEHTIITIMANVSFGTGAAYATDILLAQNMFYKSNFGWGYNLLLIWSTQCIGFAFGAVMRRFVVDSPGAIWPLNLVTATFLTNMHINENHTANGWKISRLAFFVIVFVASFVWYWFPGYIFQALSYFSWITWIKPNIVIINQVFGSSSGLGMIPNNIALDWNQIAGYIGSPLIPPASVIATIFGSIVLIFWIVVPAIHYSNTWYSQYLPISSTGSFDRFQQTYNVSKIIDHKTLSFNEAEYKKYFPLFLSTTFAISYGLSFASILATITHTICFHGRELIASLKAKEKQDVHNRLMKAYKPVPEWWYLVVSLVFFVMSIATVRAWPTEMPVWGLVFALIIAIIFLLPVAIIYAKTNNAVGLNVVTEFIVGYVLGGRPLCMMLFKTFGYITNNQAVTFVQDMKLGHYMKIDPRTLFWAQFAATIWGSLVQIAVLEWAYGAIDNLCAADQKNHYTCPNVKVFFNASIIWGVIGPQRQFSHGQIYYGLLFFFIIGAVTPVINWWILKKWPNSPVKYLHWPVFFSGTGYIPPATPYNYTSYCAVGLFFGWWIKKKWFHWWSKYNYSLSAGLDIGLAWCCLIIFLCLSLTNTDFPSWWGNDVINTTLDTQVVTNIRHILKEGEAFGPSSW
The experiment is described as follows: cell-based or functional assay.

Where [7] appears, read: 10-fold molar excess (1.5 mM) of competitor.

Starred links: 1 amine or outer side, 2 acyl side, 3 side chain; linkers in the order of their positions; H or OH if unused. Non-standard residues stand in square brackets, D forms with d. Residues, ends and D or L forms follow the SMILES beside them. No end group written: not given here. Eth = ethionine, CCSCC[C@H](N[*:1])C(=O)[*:2]; Ethionine = CCSCC[C@H](N[*:1])C(=O)[*:2]; hCys = N[C@@H](CCS)C(=O)O

For `CCSCC[C@H](NC(=O)[C@H](C)N)C(=O)O` [AEth, Alanyl-Ethionine] (H-Ala-[hCys](Et)-OH), the “zone of growth inhibition / sensitivity” value in experiment [1] and in experiment [2] was “Neither strain exhibited sensitivity” throughout. Also, in experiment [1], the “zone of growth inhibition” value was “no zone of growth inhibition”.

In the case of `CC(C)C[C@H](NC(=O)[C@@H](N)CCCCN)C(=O)O` [KL, Lysyl-Leucine] (H-Lys-Leu-OH), the “utilization of peptide as a sole source of leucine (growth)” value in experiment [3] and in experiment [4] was “No growth” throughout. In experiment [5] (setting [7]), the “uptake rate of KLG-[3H]L in the presence of the competitor” value is recorded as 0.26 nm/min/mg of dry weight. The “competition with the uptake of KLG-[3H]L” value in experiment [5] was “do not compete”.

Regarding `CC(C)C[C@H](NC(=O)[C@@H](N)CCCCN)C(=O)NCC(=O)O` [KLG, Lysyl-Leucyl-Glycine] (H-Lys-Leu-Gly-OH), the “utilization of peptide as a sole source of leucine (growth)” value in experiment [3] was “No growth”. The “utilization of peptide as a sole source of leucine (growth)” value in experiment [4] was “No growth”. Moreover, in experiment [5] (setting [7]), the “uptake rate with competitor as percent of the no-competitor rate” value was “approximately 50%” and the “uptake rate of KLG-[3H]L in the presence of the competitor” value was 0.12 nmoles/min/mg of dry weight. The “competition with the uptake of KLG-[3H]L” value in experiment [5] is given as “decreased competition”.

For the molecule `CCSCC[C@H](NC(=O)[C@H](CC(C)C)NC(=O)[C@H](CC(C)C)NC(=O)[C@@H](N)CCCCN)C(=O)O` [KLLEth, Lysyl-Leucyl-Leucyl-Ethionine] (H-KLL[hCys](Et)-OH), the “zone of growth inhibition / sensitivity” value in experiment [1] is recorded as “zone of complete growth inhibition”; in experiment [2], “not for PB1X-9B(pRS202)”. For the same molecule, the “zone of growth inhibition” value in experiment [2] is “not PB1X-9B(pRS202)”.

Take `CC(C)C[C@H](NC(=O)[C@H](CC(C)C)NC(=O)[C@@H](N)CCCCN)C(=O)NCC(=O)O` [KLLG, Lysyl-Leucyl-Leucyl-Glycine] (H-KLLG-OH): the “utilization of peptide as a sole source of leucine (growth)” value in experiment [3] is “able to utilize”; in experiment [4], “not able to utilize”. In addition, the “utilization of peptide as a source of leucine (growth)” value in experiment [3] (medium with ammonium sulfate as nitrogen source) is recorded as “able to utilize”. The “uptake rate of KLG-[3H]L in the presence of the competitor” value in experiment [5] (setting [7]) was “zero”. Also, in experiment [5], the “competition with the uptake of KLG-[3H]L” value is reported as “competition was seen”.

As to `CC(C)C[C@H](N)C(=O)O` [L, leucine], the “uptake rate of KLG-[3H]L in the presence of the competitor” value in experiment [5] (setting [7]) is 0.25 nm/min/mg of dry weight. The “competition with the uptake of KLG-[3H]L” value in experiment [5] was “do not compete”.

In the case of `CCSCC[C@H](NC(=O)[C@@H](N)CC(C)C)C(=O)O` [LEth, Leucyl-Ethionine] (H-Leu-[hCys](Et)-OH), in experiment [1], the “zone of growth inhibition” value was “no zone of growth inhibition”.

On to “KLLAEth: ethionine-containing toxic pentapeptide, SEQ ID NO:15 (KLLA[Eth])”, for which, in experiment [1], the “zone of growth inhibition / sensitivity” value was “zone of complete growth inhibition”. Besides, in experiment [2], the “zone of growth inhibition / sensitivity” value is given as “not for PB1X-9B(pRS202)” and the “zone of growth inhibition” value is listed as “not PB1X-9B(pRS202)”.

“KLLLG [KLLLG, Lysyl-Leucyl-Leucyl-Leucyl-Glycine]”: the “utilization of peptide as a sole source of leucine (growth)” value in experiment [3] and in experiment [4] was “No growth” throughout. Further, the “uptake rate of KLG-[3H]L in the presence of the competitor” value in experiment [5] (setting [7]) is “zero”. In addition, the “competition with the uptake of KLG-[3H]L” value in experiment [5] is given as “competition was seen”.

For “Lysysl-Leucyl-Alanyl-Ethionine (KLA[Ethionine]) [KLAEth]”, the “zone of growth inhibition / sensitivity” value is listed as “zone of complete growth inhibition” in experiment [1] and “not for PB1X-9B(pRS202)” in experiment [2]. In addition, the “zone of growth inhibition” value in experiment [2] is “not PB1X-9B(pRS202)”.

With Lysysl-Leucyl-Ethionine [KLEth], the “zone of growth inhibition / sensitivity” value in experiment [1] and in experiment [2] was “Neither strain exhibited sensitivity” each time. In experiment [1], the “zone of growth inhibition” value was “no zone of growth inhibition”.

Take KLG [Lysyl-Leucyl-Glycine]: the “uptake rate of KLG-[3H]L in the presence of a 10-fold molar excess of the competitor” value in experiment [6] is 0.12 nmoles/min/mg of dry weight.

In the case of KL [Lysyl-Leucine], in experiment [6], the “uptake rate of KLG-[3H]L in the presence of a 10-fold molar excess of the competitor” value was 0.26 nm/min/mg of dry weight.

Values taken from patent US6441134B1, “Isolated Candida albicans oligopeptide transporter gene” (The University of Tennessee Research Corporation, dated 2002).
